Assay results published in patent US7803377B2, “Anti-DLL4 antibodies and methods using same” (Genentech, Inc., priority 2006, dated 2010).

Columns and labels:
[1] = tested on: non-small lung cancer SKMES-1; test: Tumor model SKMES-1; assay type: in vivo, mouse; conditions: 5 mg/kg, IP, twice weekly after establishment of the tumors
Procedure: (§1) Tumor models. Beige nude female mice of 8- to 10-week-old were used. To obtain subcutaneous tumors, mice were injected with 0.1 ml cell suspension containing 50% matrigel (BD Bioscience) into the right posterior flank. 5×10^6 human colon cancer HM7 cells, 10×10^6 human colon carcinoma Colo205 cells, 10×10^6 human lung carcinoma Calu6 cells, 10×10^6 human lung carcinoma MV-522 cells, 10×10^6 mouse leukemia WEHI-3 cells, 10×10^6 mouse lymphoma EL4 cells, 10×10^6 human ovarian cancer SK-OV-3 X1 cells, 10×06 mouse lung cancer LL2 cells, 10×10^6 leukemia/lymphoma EL4 cells, or 10×10^6 non-small lung cancer H1299 cells were injected into each mouse. For human melanoma MDA-MB-435 model, mice were injected into the mammary fat pad with 0.1 ml cell (5×10^6) suspension containing 50% matrigel. […] For the following tumor models, each test mouse received a subcutaneous tumor fragment (1 mm^3) implanted in the right flank: non-small lung cancer SKMES-1, human breast cancer MX-1, human colorectal cancer SW620 and human adenocarcinoma LS174T. The tumor growth was quantitated by caliper measurements. Tumor volume (mm^3) was determined by measuring the length (l) and width (w) and calculating the volume (V=lw2/2). 10 to 15 animals were included in each group. Statistical comparison of treatment groups was performed using two-tailed Student's t-test. […]

[2] = tested on: SK-OV-3X1, LL2, EL4, H11299, SKMES-1, MX-1, SW620 and LS174T models; test: Tumor models, combination of YW26.82 with anti-VEGF where tested; assay type: in vivo, mouse; conditions: YW26.82 5 mg/kg and anti-VEGF 5 mg/kg, IP, twice weekly; models where the combination was tested
Procedure: as §1

[3] = tested on: HUVECs; test: HUVEC fibrin gel bead assay; assay type: cell-based, human; conditions: anti-DLL4 antibody 5 μg/ml, DBZ 0.08 μM
Procedure: HUVEC fibrin gel bead assay. Details of the HUVEC fibrin gel bead assay have been described (Nakatsu, M. N. et al. Microvasc Res 66, 102-12 (2003)). Briefly, Cytodex™ 3 beads (Amersham Pharmacia Biotech) were coated with 350-400 HUVECs per bead. About 200 HUVEC-coated beads were imbedded in fibrin clot in one well of 12-well tissue culture plate. 8×10^4 SF cells were plated on top of the clot. Assays were terminated between day 7 and day 9 for immunostaining and imaging. In some experiments, HUVEC sprouts were visualized by staining with Biotin-anti-CD31 (clone WM59, eBioscience) and strepavidin-Cy3. For HUVEC nuclei staining, fibrin gels were fixed overnight in 2% paraformaldehyde (PFA), and stained with 4′,6-diamidino-2-phenylindole (DAPI, Sigma). For Ki67 staining, fibrin gels were treated with 10× trypsin-EDTA for 5 min to remove the top layer SF, neutralized with 10% FBS in PBS, and fixed overnight in 4% PFA. Fibrin gels were then blocked with 10% goat serum in PBST for 4 hr, incubated overnight with rabbit anti-mouse Ki67 (Ready-To-Use, clone Sp6, LabVision), followed by secondary detection with anti-rabbit IgG-Cy3 (Jackson ImmunoResearch). All overnight incubations were done at 4° C. […]

[4] = tested on: adult retinal vasculature; test: Adult mouse retina vasculature (ASMA and isolectin staining); assay type: in vivo; conditions: 8 week-old mice, 10 mg/kg, twice weekly for two weeks
Source text: FIG. 8: DLL4-mediated Notch signaling regulated EC differentiation. a, The lumen-like structures (white arrows) formed by HUVECs growing in fibrin gels were lost in the presence of anti-DLL4 antibody or DBZ. Instead, the spouts were highly packed with cells (black arrows). b, Regulation of TGFβ2 by Notch. Quantitative PCR analysis of TGFβ2 expression in response to, Notch blockade in 3-D fibrin gel culture of HUVECs for (7 d) by anti-DLL4 antibody or DBZ (left), or Notch activation in 2-D culture of HUVECs (36 hr) by immobilized DLL4 (right). c, Anti-DLL4 antibody blocks arterial development. Confocal images of neonatal mouse retinas stained with alpha smooth muscle actin (ASMA) and isolectin. Neonatal mice were treated as described in FIG. 1d. d, Confocal images of adult mouse retinas stained with ASMA and isolectin. 8 week-old mice were treated with PBS or anti-DLL4 antibody (10 mg/kg, twice weekly) for two weeks.
Thus, DLL4/Notch signaling is critical during active angiogenesis, but plays a less important role in normal vessel maintenance.

[5] = molecular target: T1, full length DLL4 (Homo sapiens, UniProt Q9NR61); test: FACS analysis of transiently transfected 293 cells; assay type: binding; conditions: DLL4 transfected 293 cells; antibody 2 μg/ml
T1 construct: transiently transfected with vector, full length DLL4, Jag1 or DLL1; expressed in transfected cells; host or cells: 293 cells, transient

[6] = tested on: human colon cancer HM7 cells; test: Tumor model HM7; assay type: in vivo, mouse; conditions: treatment initiated at ≧250 mm^3; 10 mg/kg i.p. twice weekly; two weeks of treatment
Procedure: as §1

Substance: YW26.82: affinity matured anti-DLL4 monoclonal antibody; HVR-H1/H2/H3 SEQ ID NO:1, 8, 9; HVR-L1/L2/L3 SEQ ID NO:10, 11, 18
- tumor growth, single agent [1]: inhibited tumor growth alone
- efficacy in combination with anti-VEGF [2]: enhanced efficacy
- HUVEC sprouting (length and number of sprouts) ([3]; fibrin gel with co-cultured SF cells): markedly increased the length and number of sprouts
- Ki67 staining, HUVEC proliferation ([3]; fibrin gel): caused hyperproliferation of HUVECs
- impact on adult retinal vasculature [4]: no visible impact on adult retinal vasculature
- binding by FACS [5]: significant binding
- tumor volume [6]: remained static
